Assay results reported in patent US20100311770A1, “COMPOUND COMBINATIONS FOR INHIBITING CELL DIVISION AND METHODS FOR THEIR IDENTIFICATION AND USE” (President and Fellows of Harvard College, priority 2005, published 2010).
pIC50: −log10 of the molar value. In brackets after ≈: the same amount, converted by molar mass. Entries after “also recorded” stand apart in the source; their conditions may differ.

Columns and labels:
E. coli strain DRC39 = assay: combination anti-bacterial treatment at sub-MIC concentrations, cell growth by turbidity or OD600; type: cell-based; details: for amount of growth relative to absence of compound / growth inhibition: single compound
Protocol: Cell growth was assessed by visual inspection of cells incubated in culture tubes in this experiment and in the second, third, and fourth experiments described in this Example. In the fifth experiment growth was measured by reading optical density (OD600) using a multiwell plate reader. Cells were inoculated at a low concentration (1-2×10^5 cells/ml), such that the medium appeared clear.

[1] = system: E. coli DRC39 (ΔacrAB::kan); type: cell-based; details: for MIC: E. coli DRC39 (ΔacrAB::kan), MIC99
[2] = biological target: M. tuberculosis FtzZ (FtsZMt) GTPase (Mycobacterium tuberculosis, UniProt P9WN95); assay: malachite green-phosphomolybdate assay of FtsZ GTPase activity; type: biochemical; details: 5 min preincubation at 30° C., 1 mM GTP; average of three determinations
[3] = biological target: E. coli FtsZ (FtsZEc) GTPase (Escherichia coli, UniProt P0A9A6); details: read-out: IC50 FtsZEc GTPase; 5 min preincubation at 30° C., 1 mM GTP; average of three determinations
Protocol: FtsZ was preincubated with varying concentrations of compounds or with 3% DMSO in buffer E for 5 min at 30° C., before adding 1 mM GTP to the reactions. Reaction kinetics were followed by measuring inorganic phosphate released upon GTP hydrolysis. The IC50 values were extrapolated from log dose-response curves and are averages from three independent determinations.

[4] = system: E. coli DRC42 (DRC39 recA::cat); assay: MIC, standard broth dilution
[5] = system: FtsZ ring assembly in E. coli DRC39 cells; type: cell-based
Clostridium perfringens = type: cell-based
[6] = system: E. coli MC1000 (wild-type); assay: MIC, standard broth dilution; details: MIC99
[7] = system: E. coli DRC40 (DRC39 ftsZ84); assay: MIC / growth and phenotype, broth culture; type: cell-based
Bacillus subtilis = assay: MIC / killing, broth culture
E. coli DRC40/pBR-ftsZ+ = type: cell-based
Vibrio cholerae = assay: MIC, standard broth dilution
Staphylococcus aureus = assay: MIC, standard broth dilution
[8] = system: gram-negative and gram-positive bacteria; assay: MIC against a variety of bacteria (FIG. 19); type: cell-based
Protocol: FIG. 19 is a table illustrating the minimum inhibitory concentrations of FtsZ GTPase inhibitory compounds identified in vitro. The compounds were tested against a variety of gram-negative and gram-positive bacteria.
The minimum inhibitory concentrations for some of the identified compounds against various bacterial species and strains were evaluated and results are shown herein (see, e.g., FIG. 19 for MIC values of compounds identified using in vitro assays, and see Table 3 for MIC values for compound 26E-10).

[9] = C. perfringens, 80 μM, anaerobic conditions

Sequence of E. coli FtsZ (FtsZEc) GTPase (P0A9A6 whole entry): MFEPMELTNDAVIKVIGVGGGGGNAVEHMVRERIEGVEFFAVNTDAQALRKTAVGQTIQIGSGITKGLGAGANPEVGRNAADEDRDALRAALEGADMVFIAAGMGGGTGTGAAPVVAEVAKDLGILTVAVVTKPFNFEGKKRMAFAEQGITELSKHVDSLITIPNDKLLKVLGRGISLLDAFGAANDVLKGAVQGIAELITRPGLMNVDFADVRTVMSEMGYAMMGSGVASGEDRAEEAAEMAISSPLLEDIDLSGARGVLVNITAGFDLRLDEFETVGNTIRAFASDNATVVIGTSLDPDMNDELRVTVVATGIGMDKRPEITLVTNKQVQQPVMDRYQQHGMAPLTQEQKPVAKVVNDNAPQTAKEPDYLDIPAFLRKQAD
Sequence of M. tuberculosis FtzZ (FtsZMt) GTPase (P9WN95 whole entry): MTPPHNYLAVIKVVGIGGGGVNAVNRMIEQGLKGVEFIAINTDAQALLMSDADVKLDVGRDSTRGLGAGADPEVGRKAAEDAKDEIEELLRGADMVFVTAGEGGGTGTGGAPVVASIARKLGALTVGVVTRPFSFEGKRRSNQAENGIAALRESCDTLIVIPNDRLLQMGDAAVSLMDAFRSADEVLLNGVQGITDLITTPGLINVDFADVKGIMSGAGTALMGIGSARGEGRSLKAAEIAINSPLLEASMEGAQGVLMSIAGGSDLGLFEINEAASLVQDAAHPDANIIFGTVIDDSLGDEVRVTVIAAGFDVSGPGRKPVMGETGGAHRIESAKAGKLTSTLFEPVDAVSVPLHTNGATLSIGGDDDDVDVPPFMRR

## CCN1C(=Cc2ccc3c4ccccc4ccc3[n+]2CC)C=Cc2ccccc21.Cc1ccc(S(=O)(=O)[O-])cc1 [7N-12]
E. coli strain DRC39; 0.3 μM
  amount of growth relative to absence of compound: 98%
  growth inhibition: 2%
[1]
  MIC: 1.25 µM

## CCN(CC)CCNc1nc(C=Cc2ccc(Cl)cc2)nc2cc3ccccc3cc12 [16L-09]
[2]
  pIC50: 4.30
E. coli strain DRC39; in combination with 26E-10 at sub-MIC concentrations
  reduction in MIC when administered in combination: 4 fold
[3]
  pIC50: 4.82
[1]
  MIC: 10 µM (≈ 4.31 µg/mL)

## CC[n+]1ccc(/C=C/N(C)c2ccccc2)c2ccccc21.[I-] [26E-10]
[4]
  MIC: 10 µM
[5]; 10 μM
  DNA replication / chromosome segregation (DAPI staining of nucleoids): does not affect DNA replication or chromosome segregation
[5]; 10 μM (MIC), within 60 min
  Z-rings in elongated cells: markedly reduced in number and diminished in intensity
[5]; 10 μM, after 90 min treatment
  Z-rings: most of the cells were devoid of distinct Z-rings
[5]; 10 μM, within 60 min of treatment
  cell length (filamentation): ~4 ×
Clostridium perfringens; [9]
  effect on cell growth: without any overt effect on cell growth
  phenotype: filamentation phenotype; also recorded: filaments
Clostridium perfringens; Clostridium perfringens
  MIC: > 80 µM
[6]
  MIC: >40 µM
E. coli strain DRC39; 5 μM
  amount of growth relative to absence of compound: 41%
  growth inhibition: 59%
[7]; DRC40/pBR322, 5 μM compound, 30° C.
  growth: absolutely no growth
[7]; E. coli DRC40
  phenotype at MIC: filaments
[7]; E. coli DRC40 (ftsZ84), 30° C., MIC99
  MIC: 2.5 µM
Bacillus subtilis
  killing of B. subtilis: efficiently killed
Bacillus subtilis; Bacillus subtilis
  MIC: 40 µM
E. coli DRC40/pBR-ftsZ+; DRC40/pBR-ftsZ+, 5 μM compound, versus DRC40/pBR322
  cell density and filamentation: higher cell density and less pronounced filamentation
E. coli DRC40/pBR-ftsZ+; DRC40 with wild-type ftsZ in trans (pBR-ftsZ+)
  MIC: 10 µM
Vibrio cholerae
  MIC: 40 µM
Staphylococcus aureus
  MIC: 20 µM
[1]; DRC39, 5 μM compound, 30° C.
  cell morphology and density: mixture of filaments of varying lengths and short cells present at a low density
[1]; E. coli DRC39
  phenotype at MIC: filaments
[1]
  MIC: 10 µM

## Oc1ccc(Cl)cc1Cc1cc(Cl)cc(Cc2cc(Cl)ccc2O)c1O [27D-12]
[2]
  pIC50: 4.26
[8]
  activity against gram negative bacteria: kills gram negative species
  activity against gram positive bacteria: effective against gram positive bacteria at very low concentrations
[3]
  pIC50: 5.30
[1]
  MIC: 20 µM (≈ 8.19 µg/mL)

## Nc1c(C=Cc2cc3cc(C4=NCCN4)ccc3o2)[nH]c2cc(C3=NCCN3)ccc12 [58P-18]
[5]; 40 μM
  Z-ring assembly: none of the treated cells appear to contain a medial FtsZ ring
  time until cells start elongating: ≤ 60 min
[2]
  pIC50: 4.52
[3]
  pIC50: 5.40
[1]
  MIC: 80 µM (≈ 32.8 µg/mL)
